Laboratory results reported in patent US20100167925A1, “Substituted Azolin-2-yl-Amino Compounds” (BASF SE, priority 2006, published 2010).

Assays:
Aphis gossypii = assay: Cotton aphid (Aphis gossypii) mortality on dipped cotton plants; format: in vivo; details: 120 h, cotton plants in cotyledon stage dipped into test solution, aphid mortality determined after 5 days, read-out: mortality in comparison with untreated controls
Protocol: I. Cotton Aphid (Aphis gossypii)
(§1) Cotton plants in the cotyledon stage (variety ‘Delta Pine’) are infested with approximately 100 laboratory-reared aphids by placing infested leaf sections on top of the test plants. The leaf sections are removed after 24 hours. The cotyledons of the intact plants are dipped into gradient solutions of the test compound. Aphid mortality on the treated plants, relative to mortality on check plants, is determined after 5 days.

Myzus persicae = assay: Green peach aphid (Myzus persicae) mortality on dipped pepper plants; format: in vivo; details: 120 h, pepper plants in 2nd leaf-pair stage dipped into test solution, aphid mortality determined after 5 days, read-out: mortality in comparison with untreated controls
Protocol: I.b. Green Peach Aphid (Myzus persicae)
as §1, with “Pepper” for “Cotton”, “2nd leaf-pair” for “cotyledon”, “‘California Wonder’)” for “‘Delta Pine’)”, “40” for “100”, “leaves” for “cotyledons”

SMILES	mortality at 300 ppm (Aphis gossypii) [%]	mortality at 300 ppm (Myzus persicae) [%]	melting point [°C]
CC1(C)Cc2ccccc2C1NC1=NCCS1 (stereo not drawn) [Example 22, (4,5-Dihydro-thiazol-2-yl)-(2,2-dimethyl-indan-1-yl)-amine]	> 70	> 70	
CC1(C)Cc2ccccc2C1N=C1SCCN1C1=NCCS1 (stereo not drawn)			161 to 163
